Read-outs that look alike come from different tables or passages of the source.
Legend:
native KA receptors [1] = assay: Binding affinity at native KA receptors, [3H]-KA, rat cortical synaptosomes; conditions: native iGluRs; for IC50 KA: mean of at least three experiments
[2] = target: recombinant rat homomeric GluK1 (Rattus norvegicus, UniProt P22756); assay: Binding affinity at cloned homomeric GluK1 expressed in sf9 cells, [3H]-NF608
[3] = target: recombinant rat homomeric GluK2 (Rattus norvegicus, UniProt P42260); assay: Binding affinity at cloned homomeric GluK2 expressed in sf9 cells, [3H]-KA
Sequence of recombinant rat homomeric GluK2 (P42260 32-908): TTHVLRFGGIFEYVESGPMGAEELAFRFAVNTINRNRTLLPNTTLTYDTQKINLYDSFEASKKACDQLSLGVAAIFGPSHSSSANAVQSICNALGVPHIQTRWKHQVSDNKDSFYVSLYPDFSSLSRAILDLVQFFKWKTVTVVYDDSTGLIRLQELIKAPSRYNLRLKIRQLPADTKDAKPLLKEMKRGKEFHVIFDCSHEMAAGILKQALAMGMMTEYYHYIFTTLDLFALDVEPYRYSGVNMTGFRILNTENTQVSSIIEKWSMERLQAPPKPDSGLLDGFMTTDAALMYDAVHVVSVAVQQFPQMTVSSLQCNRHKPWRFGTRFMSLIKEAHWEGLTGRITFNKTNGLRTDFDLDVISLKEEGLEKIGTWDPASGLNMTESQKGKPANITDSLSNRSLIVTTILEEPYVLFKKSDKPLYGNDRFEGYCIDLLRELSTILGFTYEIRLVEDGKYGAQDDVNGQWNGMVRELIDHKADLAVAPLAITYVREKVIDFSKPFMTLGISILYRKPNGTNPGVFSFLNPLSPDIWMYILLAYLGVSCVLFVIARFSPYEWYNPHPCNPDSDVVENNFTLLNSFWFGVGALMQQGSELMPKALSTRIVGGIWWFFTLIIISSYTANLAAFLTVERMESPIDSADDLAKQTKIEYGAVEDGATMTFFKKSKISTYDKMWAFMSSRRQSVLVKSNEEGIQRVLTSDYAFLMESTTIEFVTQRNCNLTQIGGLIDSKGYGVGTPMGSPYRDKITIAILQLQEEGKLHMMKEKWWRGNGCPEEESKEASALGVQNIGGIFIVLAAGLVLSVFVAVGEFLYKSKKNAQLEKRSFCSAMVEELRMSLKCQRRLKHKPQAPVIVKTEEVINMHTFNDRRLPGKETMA

[4] = target: recombinant rat homomeric GluK3 (Rattus norvegicus, UniProt P42264); assay: Binding affinity at cloned homomeric GluK3 expressed in sf9 cells, [3H]-KA; conditions: for GluK1/K3 (GluK1/GluK3 Ki selectivity ratio): ratio of Ki values at cloned homomeric receptors
Sequence of recombinant rat homomeric GluK3 (P42264 32-919): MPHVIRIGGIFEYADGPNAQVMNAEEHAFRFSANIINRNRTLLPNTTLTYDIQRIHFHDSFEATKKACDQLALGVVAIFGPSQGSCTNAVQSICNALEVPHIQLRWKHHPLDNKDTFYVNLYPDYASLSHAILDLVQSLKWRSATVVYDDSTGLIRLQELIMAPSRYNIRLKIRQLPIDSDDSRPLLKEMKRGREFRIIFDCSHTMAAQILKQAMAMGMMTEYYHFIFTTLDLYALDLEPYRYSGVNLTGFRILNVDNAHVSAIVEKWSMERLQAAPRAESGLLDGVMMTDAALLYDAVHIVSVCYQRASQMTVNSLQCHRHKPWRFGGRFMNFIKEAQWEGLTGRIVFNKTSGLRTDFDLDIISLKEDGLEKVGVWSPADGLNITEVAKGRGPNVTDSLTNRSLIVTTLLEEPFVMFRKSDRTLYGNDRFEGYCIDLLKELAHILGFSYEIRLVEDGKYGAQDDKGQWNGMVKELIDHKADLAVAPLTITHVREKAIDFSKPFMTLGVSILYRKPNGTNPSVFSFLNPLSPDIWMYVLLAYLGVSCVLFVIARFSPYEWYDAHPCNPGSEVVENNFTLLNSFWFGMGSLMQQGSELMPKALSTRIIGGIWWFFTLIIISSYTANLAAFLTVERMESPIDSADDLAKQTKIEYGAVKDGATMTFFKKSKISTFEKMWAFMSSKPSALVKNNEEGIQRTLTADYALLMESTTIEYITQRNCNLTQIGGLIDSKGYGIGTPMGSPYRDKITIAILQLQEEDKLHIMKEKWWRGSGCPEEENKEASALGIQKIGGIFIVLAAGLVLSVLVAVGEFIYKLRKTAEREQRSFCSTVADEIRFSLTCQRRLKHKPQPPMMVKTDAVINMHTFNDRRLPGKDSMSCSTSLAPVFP

human EAAT1 = human EAAT1 (Homo sapiens, UniProt P43003); assay: [3H]-D-Asp uptake assay, EAAT1 stably expressed in HEK293 cells; type: cell-based
Sequence of human EAAT1 (P43003 whole entry): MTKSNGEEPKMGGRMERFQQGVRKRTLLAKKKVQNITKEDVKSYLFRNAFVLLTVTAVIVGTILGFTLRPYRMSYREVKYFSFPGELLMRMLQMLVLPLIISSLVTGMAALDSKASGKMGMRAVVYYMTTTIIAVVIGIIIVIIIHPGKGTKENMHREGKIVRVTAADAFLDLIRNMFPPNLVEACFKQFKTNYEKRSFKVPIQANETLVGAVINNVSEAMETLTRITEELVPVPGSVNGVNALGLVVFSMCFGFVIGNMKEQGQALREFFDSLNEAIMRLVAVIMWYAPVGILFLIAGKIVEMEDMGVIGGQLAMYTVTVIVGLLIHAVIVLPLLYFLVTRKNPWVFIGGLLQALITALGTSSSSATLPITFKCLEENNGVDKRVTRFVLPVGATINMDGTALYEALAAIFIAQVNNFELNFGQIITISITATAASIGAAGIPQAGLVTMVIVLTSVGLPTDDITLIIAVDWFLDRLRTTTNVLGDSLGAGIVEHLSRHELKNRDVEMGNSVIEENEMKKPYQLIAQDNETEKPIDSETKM

human EAAT2 = human EAAT2 (Homo sapiens, UniProt P43004); assay: [3H]-D-Asp uptake assay, EAAT2 stably expressed in HEK293 cells; type: cell-based
Sequence of human EAAT2 (P43004 whole entry): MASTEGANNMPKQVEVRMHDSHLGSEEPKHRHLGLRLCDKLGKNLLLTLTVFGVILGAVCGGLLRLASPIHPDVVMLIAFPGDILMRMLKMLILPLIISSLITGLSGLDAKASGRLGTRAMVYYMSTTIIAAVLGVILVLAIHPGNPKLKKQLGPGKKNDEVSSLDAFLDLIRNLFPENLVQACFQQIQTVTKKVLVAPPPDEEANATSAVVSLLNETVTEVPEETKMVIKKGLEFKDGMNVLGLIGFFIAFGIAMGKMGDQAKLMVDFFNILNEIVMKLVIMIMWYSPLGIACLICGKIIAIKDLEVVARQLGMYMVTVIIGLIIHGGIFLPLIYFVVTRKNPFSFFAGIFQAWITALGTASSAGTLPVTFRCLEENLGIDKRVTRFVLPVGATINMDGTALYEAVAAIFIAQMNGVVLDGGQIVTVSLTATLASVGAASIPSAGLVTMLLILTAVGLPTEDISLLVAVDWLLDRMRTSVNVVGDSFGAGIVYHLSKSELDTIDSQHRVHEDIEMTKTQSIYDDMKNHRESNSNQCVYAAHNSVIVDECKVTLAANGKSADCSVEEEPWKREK

human EAAT3 = target: T1, human EAAT3 (Homo sapiens, UniProt P43005); assay: [3H]-D-Asp uptake assay, EAAT3 stably expressed in HEK293 cells; type: cell-based
T1 sequence (P43005 1-524): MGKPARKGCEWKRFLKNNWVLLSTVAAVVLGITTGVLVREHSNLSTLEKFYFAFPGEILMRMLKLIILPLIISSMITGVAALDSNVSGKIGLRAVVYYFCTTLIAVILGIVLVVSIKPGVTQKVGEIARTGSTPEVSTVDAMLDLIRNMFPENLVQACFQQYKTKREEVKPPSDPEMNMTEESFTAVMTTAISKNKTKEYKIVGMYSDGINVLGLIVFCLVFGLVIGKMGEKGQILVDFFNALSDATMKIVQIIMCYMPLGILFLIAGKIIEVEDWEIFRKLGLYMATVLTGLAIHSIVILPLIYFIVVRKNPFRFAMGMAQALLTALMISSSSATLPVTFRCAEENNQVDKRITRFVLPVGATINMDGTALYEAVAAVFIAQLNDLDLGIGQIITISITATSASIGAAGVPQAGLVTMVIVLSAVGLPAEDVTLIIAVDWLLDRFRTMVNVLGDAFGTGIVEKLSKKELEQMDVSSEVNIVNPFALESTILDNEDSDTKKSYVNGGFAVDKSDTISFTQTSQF

native NMDA receptors [5] = type: binding; conditions: native iGluRs, rat synaptosomes
native AMPA receptors = conditions: read-out: IC50 AMPA; cited from earlier work
native KA receptors [6] = conditions: cited from earlier work
native NMDA receptors [7] = conditions: read-out: Ki NMDA; cited from earlier work
[8] = Ki GluK3, cloned homomeric receptor, mean ± SEM, at least three experiments
[9] = IC50 EAAT1, HEK293 cells, [3H]-D-Asp uptake

Sequence of recombinant rat homomeric GluK1 (P22756 31-949): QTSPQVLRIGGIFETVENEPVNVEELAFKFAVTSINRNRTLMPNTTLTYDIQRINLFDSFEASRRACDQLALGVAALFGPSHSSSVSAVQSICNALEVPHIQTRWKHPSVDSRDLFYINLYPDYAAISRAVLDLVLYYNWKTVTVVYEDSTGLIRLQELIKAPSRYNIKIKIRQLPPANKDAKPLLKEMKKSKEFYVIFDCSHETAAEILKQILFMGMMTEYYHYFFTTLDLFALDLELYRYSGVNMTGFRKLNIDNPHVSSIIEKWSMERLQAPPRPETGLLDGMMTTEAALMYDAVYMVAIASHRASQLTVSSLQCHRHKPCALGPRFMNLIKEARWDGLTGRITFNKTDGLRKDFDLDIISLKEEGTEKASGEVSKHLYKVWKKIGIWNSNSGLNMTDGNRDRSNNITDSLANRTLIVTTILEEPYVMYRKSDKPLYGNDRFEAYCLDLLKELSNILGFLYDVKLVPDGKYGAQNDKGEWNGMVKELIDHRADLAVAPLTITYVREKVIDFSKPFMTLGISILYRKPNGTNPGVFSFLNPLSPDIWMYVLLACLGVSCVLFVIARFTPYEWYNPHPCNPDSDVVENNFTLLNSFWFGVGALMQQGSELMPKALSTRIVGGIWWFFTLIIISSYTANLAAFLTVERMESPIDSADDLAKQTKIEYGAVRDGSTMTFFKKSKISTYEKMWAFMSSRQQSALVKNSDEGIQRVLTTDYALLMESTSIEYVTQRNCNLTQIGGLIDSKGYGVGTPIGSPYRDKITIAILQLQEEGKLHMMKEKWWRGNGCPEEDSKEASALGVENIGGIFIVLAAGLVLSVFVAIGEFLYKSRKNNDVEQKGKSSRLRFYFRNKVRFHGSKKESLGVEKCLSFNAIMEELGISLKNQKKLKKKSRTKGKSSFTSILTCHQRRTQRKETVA

Row | SMILES | IC50 KA (native KA receptors [1]) [µM] | Ki [2] [µM] | Ki ([3]; Ki GluK2) [µM] | Ki [4, 8] [µM] | IC50 (human EAAT1; IC50 EAAT1) [µM] | IC50 (human EAAT2) [µM] | IC50 (human EAAT3) [µM] | other results
1 | Cl.O=C(O)C(CCc1ccccc1)[C@@H]1CCN[C@H]1C(=O)O (relative stereo) [3h, trans-3-(1-Carboxy-3-phenylpropyl)pyrrolidine-2-carboxylic Acid Hydrochloride] | >100 | > 100 | > 100 | 86 ± 7.3 | > 300 | > 300 | > 300 | –
2 | Cl.O=C(O)[C@H]1NCC[C@@H]1[C@@H](C(=O)O)c1ccccc1 [3d-s1, (2S,3R)-3-((R)-Carboxy(phenyl)methyl)pyrrolidine-2-carboxylic Acid Hydrochloride] | >100 | > 100 | > 100 | – | > 300 | ~50 | > 300 | Ki ([4]; Ki GluK3): > 100 µM
3 | CC(C)C(C(=O)O)[C@@H]1CCN[C@H]1C(=O)O.Cl (relative stereo) [3f, trans-3-(1-Carboxy-2-methylpropyl)pyrrolidine-2-carboxylic Acid Hydrochloride] | >100 | > 100 | > 100 | > 100 | 45 | 15.8 | 35.5 | IC50 (human EAAT1; pIC50 EAAT1 (mean ± SEM, in brackets)): 45.7 µM
4 | Cl.O=C(O)C(Cc1c[nH]nn1)[C@@H]1CCN[C@H]1C(=O)O (stereo partly drawn) [3p-d1, trans-3-(1-Carboxy-2-(1H-1,2,3-triazol-4-yl)ethyl)pyrrolidine-2-carboxylic Acid Hydrochloride] | >100 | ~100 | > 100 | 6.6 ± 0.09 | > 300 | > 300 | > 300 | –
5 | Cl.O=C(O)C(Cc1ccccc1)[C@@H]1CCN[C@H]1C(=O)O (relative stereo) [3g, trans-3-(1-Carboxy-2-phenylethyl)pyrrolidine-2-carboxylic Acid Hydrochloride] | 71 | 46 ± 2.2 | 67 ± 4.6 | 5.4 ± 0.42 | – | 20 | – | pIC50 KA (mean ± SEM, in brackets) (native KA receptors [1]): 4.15 ± 0.04; GluK1/K3 (GluK1/GluK3 Ki selectivity ratio) [4]: 9; IC50 (human EAAT1; [9]): 34 µM; selectivity for EAAT1 and EAAT2 over EAAT3 (human EAAT1; from IC50 values): 10 fold; IC50 (human EAAT1; pIC50 EAAT1 (mean ± SEM, in brackets), HEK293 cells, [3H]-D-Asp uptake): 34.7 µM
6 | Cl.O=C(O)[C@H]1NCC[C@@H]1[C@H](C(=O)O)c1ccccc1 [3d-s2, (2S,3R)-3-((S)-Carboxy(phenyl)methyl)pyrrolidine-2-carboxylic Acid Hydrochloride] | >100 | > 100 | > 100 | – | > 300 | > 300 | > 300 | Ki ([4]; Ki GluK3): > 100 µM
7 | Cc1onc(O)c1CC(N)C(=O)O (stereo not drawn) [AMPA, α-amino-3-hydroxy-5-methyl-4-isoxazolepropionic acid, reference compound] | – | – | – | – | – | – | – | GluK1/GluK3 [4]: 0.03; GluK2/GluK3 [4]: >23
8 | COC(C(=O)O)[C@@H]1CCN[C@H]1C(=O)O.Cl (relative stereo) [3j-d1, trans-3-(Carboxy(methoxy)methyl)pyrrolidine-2-carboxylic Acid Hydrochloride] | >100 | > 100 | – | – | – | ~300 | > 1000 | Ki [3]: > 100 µM; Ki [4]: 82 ± 11.2 µM; IC50 (human EAAT1): > 1000 µM
9 | Cl.O=C(O)CCC(C(=O)O)[C@@H]1CCN[C@H]1C(=O)O (relative stereo) [3m, trans-2-(2-Carboxypyrrolidin-3-yl)pentanedioic Acid Hydrochloride] | >100 | > 100 | > 100 | > 100 | > 300 | > 300 | > 300 | pKi NMDA (mean ± SEM, in brackets) (native NMDA receptors [5]): 4.28 ± 0.01
10 | CN[C@H](CC(=O)O)C(=O)O [NMDA, N-methyl-D-aspartate, reference compound] | – | – | – | – | – | – | – | IC50 (native AMPA receptors): > 100 µM; IC50 KA (native KA receptors [6]): >100 µM; Ki (native NMDA receptors [7]): 35 µM
11 | Cl.O=C(O)C(Cc1c[nH]nn1)[C@@H]1CCN[C@H]1C(=O)O (mixture of isomers) [3p, trans-3-(1-Carboxy-2-(1H-1,2,3-triazol-4-yl)ethyl)pyrrolidine-2-carboxylic Acid Hydrochloride] | 59 | 14 ± 2 | 55 ± 9 | 3.1 ± 0.14 | > 300 | > 300 | > 300 | pIC50 KA (mean ± SEM, in brackets) (native KA receptors [1]): 4.23 ± 0.03; GluK1/K3 (GluK1/GluK3 Ki selectivity ratio) [4]: 5
12 | O=C([O-])C(CCO)[C@@H]1CCN[C@H]1C(=O)[O-].[Na+].[Na+] (relative stereo) [3n, Disodium trans-3-(1-Carboxylato-3-hydroxypropyl)pyrrolidine-2-carboxylate] | – | > 100 | – | 52 ± 3 | – | > 300 | > 300 | pKi NMDA (mean ± SEM, in brackets) (native NMDA receptors [5]): 4.23 ± 0.06; Ki ([3]; Ki GluK2, cloned homomeric receptor, mean ± SEM, at least three experiments): > 100 µM; GluK1/K3 (GluK1/GluK3 Ki selectivity ratio) [4]: >2; IC50 (human EAAT1; [9]): > 300 µM
13 | Cl.O=C(O)C(CCCO)[C@@H]1CCN[C@H]1C(=O)O (relative stereo) [3o, trans-3-(1-Carboxy-4-hydroxybutyl)pyrrolidine-2-carboxylic Acid Hydrochloride] | >100 | > 100 | > 100 | > 100 | > 300 | > 300 | > 300 | –
14 | Cl.O=C(O)C(Cc1c[nH]nn1)[C@@H]1CCN[C@H]1C(=O)O (stereo partly drawn) [3p-d2, trans-3-(1-Carboxy-2-(1H-1,2,3-triazol-4-yl)ethyl)pyrrolidine-2-carboxylic Acid Hydrochloride] | 58 | – | 43 ± 5.2 | 2.7 ± 0.32 | – | – | – | pIC50 KA (mean ± SEM, in brackets) (native KA receptors [1]): 4.24 ± 0.01; pKi NMDA (mean ± SEM, in brackets) (native NMDA receptors [5]): 4.30 ± 0.03
15 | CC[C@H](C(=O)O)[C@H]1CCN[C@@H]1C(=O)O.Cl [3c-s1, (2S,3R)-3-((S)-1-Carboxypropyl)pyrrolidine-2-carboxylic Acid Hydrochloride] | >100 | 18 ± 3.8 | – | – | – | ~30 | ~50 | pKi NMDA (mean ± SEM, in brackets) (native NMDA receptors [5]): 4.88 ± 0.02; Ki [3]: > 100 µM; Ki [4]: 11 ± 2.4 µM; GluK1/K3 (GluK1/GluK3 Ki selectivity ratio) [4]: 2; IC50 (human EAAT1): ~100 µM
16 | Cl.O=C(O)CC(C(=O)O)[C@@H]1CCN[C@H]1C(=O)O (relative stereo) [3l, trans-2-(2-Carboxypyrrolidin-3-yl)succinic Acid Hydrochloride] | 23 | 2 ± 0.16 | 33 ± 1.1 | 6.4 ± 1.2 | > 1000 | > 1000 | > 1000 | pIC50 KA (mean ± SEM, in brackets) (native KA receptors [1]): 4.63 ± 0.02; pKi NMDA (mean ± SEM, in brackets) (native NMDA receptors [5]): 5.58 ± 0.03
17 | CCCC(C(=O)O)[C@@H]1CCN[C@H]1C(=O)O.Cl (relative stereo) [3e, trans-3-(1-Carboxybutyl)pyrrolidine-2-carboxylic Acid Hydrochloride] | >100 | – | – | – | – | – | – | –
18 | CC[C@@H](C(=O)O)[C@H]1CCN[C@@H]1C(=O)O.Cl [3c-s2, (2S,3R)-3-((R)-1-Carboxypropyl)pyrrolidine-2-carboxylic Acid Hydrochloride] | >100 | 41 ± 14 | – | – | – | > 300 | > 300 | Ki [3]: 70 ± 14 µM; Ki [4]: 6.3 ± 1.3 µM; GluK1/K3 (GluK1/GluK3 Ki selectivity ratio) [4]: 7; IC50 (human EAAT1): > 300 µM

From PMC6597265 (ACS chemical neuroscience, 2019)
